The record followed here is US5225607A, “Insecticidal ethers” (Imperial Chemical Industries PLC, priority 1985, dated 1993).

Holding throughout (type): in vivo
In assay [1] the test system is Tetranychus urticae. Description: Insecticidal/acaricidal test, Tetranychus urticae (spider mites - adult), contact. The note with it: 72 h, French bean leaf, 3 days, read-out: grading of mortality, TU. In a few lines: (§1)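 Product applied at 500, 250 or 100 ppm as acetone solution diluted in water with 0.01% Lissapol NX wetting agent, onto pests and/or their host plant or food medium. Mortality or knockdown scored 1–3 days after treatment and graded A (80–100%; 70–100% for S. exigua), B (50–79%; 50–69% for S. exigua) or C (<50%).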

Assay [2] relates to Myzus persicae. Briefly: Insecticidal test, Myzus persicae (aphids), contact. The note with it: 72 h, Chinese Cabbage leaf, 3 days, read-out: grading of mortality, MP. In a few lines:
as §1

For assay [3], the system named is Nilaparvata lugens. Description: Insecticidal test, Nilaparvata lugens (brown planthopper), contact. The note with it: 72 h, Cabbage leaf, 3 days, read-out: grading of mortality, NL. An outline of the steps:
as §1

In assay [4] the test system is Musca domestica. Briefly: Knockdown test, Musca domestica (houseflies - adults). The note with it: cotton wool/sugar, 4 hours, read-out: grading of knockdown, MD/KD. An outline of the steps:
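Knockdown scores were banded: A 80–100%, B 50–79%, C <50%. Test preparations of 500, 250 or 100 ppm compound were made in acetone, then diluted with water containing 0.01% Lissapol NX, and applied to Musca domestica adults.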

Assay [5] relates to Musca domestica. Description: Insecticidal test, Musca domestica (houseflies - adults), contact. The note with it: 24 h, cotton wool/sugar, 1 day, read-out: grading of mortality, MD. In a few lines:
as §1

Assay [6] has as its system Blattella germanica. Briefly: Insecticidal test, Blattella germanica (cockroach nymphs), residual. The note with it: 72 h, plastic pot, 3 days, read-out: grading of mortality, BG. An outline of the steps: as §1
Assay [7] concerns Heliothis virescens. Description: whole plant or invertebrate. The note with it: in Gossypium hirsutum, 72 h, read-out: grading of mortality, HV. In a few lines: as §1
For assay [8], the system named is Spodoptera exigua. Briefly: Insecticidal test, Spodoptera exigua (lesser armyworm), residual. The settings on record: 72 h, cotton leaf, 3 days, read-out: grading of mortality, SE. Here is the method:
The activity of the Product was determined using a variety of insect and acarine pests. The Product was used in the form of liquid preparations containing 500, 250 or 100 parts per million (ppm) by weight of the Product. The preparations were made by dissolving the Product in acetone and diluting the solutions with water containing 0.01% by weight of a wetting agent sold under the trade name "LISSAPOL" NX until the liquid preparations contained the required concentratio of the Product. "Lissapol" is a Registered Trade Mark.
The test procedure adopted with regard to each pest was basically the same and comprised supporting a number of the pests on a medium which was usually a host plant or a foodstuff on which the pests feed, and treating either or both the pests and the medium with the preparations. The mortality of the pests was then assessed at periods usually varying from one to three days after the treatment.
The results of the tests are given in Table IV for each of the Products, at the rate in parts per million given in the second column as a grading of mortality designated as A, B or C wherein A indicates 80-100% mortality or knockdown (70-100% in the case of Spodoptera exigua), B indicates 50-79% mortality or knockdown (50-69% in the case of Spodoptera exigua) and C indicates less than 50% mortality or knockdown.
In Table IV the pest organism used is designated by a letter code and the pest species, the support medium or food, and the type and duration of test is given in Table III.

For assay [9], the system named is Diabrotica balteata. Briefly: Insecticidal test, Diabrotica balteata (rootworm larvae), residual. The settings on record: 72 h, filter paper/maize seed, 3 days, read-out: grading of mortality, DB. An outline of the steps:
as §1

Consider `FC(F)(F)C(COCc1cccc(Oc2ccc(Cl)cc2)c1)c1ccc2c(c1)OCO2` (stereo not drawn) [Compound 32, 1,1,1-Trifluoro-2-(3,4-methylenedioxyphenyl)-3-(3-(4-chlorophenoxy)benzyloxy)propane], for which the mortality – broadly, the share of the test organisms that died – at 500 ppm in assay [1] was less than 50%; in assay [2], 50 to 79%; in assay [3] it was 80 to 100%; in [5] it was 80 to 100%; in [6] it was 50 to 79%; in assay [7], 80 to 100%. Also, the mortality at 500 ppm lay in the range of 70 to 100% in assay [8] and 80 to 100% in [9]. For the same molecule, the pest or weed control at 500 ppm in [4] was in the range of 80 to 100%.

`FC(F)(F)c1ccc(C(F)(COCc2cccc(Oc3ccccc3)c2)C(F)(F)F)cc1` (stereo not drawn) [Compound 84, 1,1,1,2-Tetrafluoro-2-(4-trifluoromethylphenyl)-3-(3-phenoxybenzyloxy)propane]: the mortality at 500 ppm in assay [1], in [2], in [3], in assay [5], in assay [6] and in [7] was 80 to 100% each time. Also, the mortality at 500 ppm in [8] fell in the range of 70 to 100%; in [9] it was 80 to 100%. The pest or weed control at 500 ppm in assay [4] was in the range of 80 to 100%.

Consider `Fc1ccc(C(Cl)(COCc2ccc(F)c(Oc3ccccc3)c2)C(F)(F)F)cc1` (stereo not drawn) [Compound 51, 1,1,1-Trifluoro-2-chloro-2-(4-fluorophenyl)-3-(3-phenoxy-4-fluorobenzyloxy)propane], for which the mortality at 100 ppm is less than 50% in assay [1]; less than 50% in [2]; 50 to 79% in [3]; less than 50% in [5]; less than 50% in assay [6]; 80 to 100% in assay [7]. Further, the mortality at 100 ppm in assay [8] lay within 70 to 100%; in assay [9], 80 to 100%. Further, in assay [4], the pest or weed control at 100 ppm is less than 50%.

Consider `CCOc1c(F)cc(C(COCc2cccc(Oc3ccccc3)c2)C(F)(F)F)cc1F` (racemic) [Compound 163, (RS)-1,1,1-trifluoro-2-(3,5-difluoro-4-ethoxyphenyl)-3-(3-phenoxybenzyloxy)propane], for which the mortality at 500 ppm in assay [1], in [2], in [3], in assay [5], in assay [6] and in [7] was 80 to 100% in each case. In addition, the mortality at 500 ppm is 70 to 100% in assay [8] and 80 to 100% in assay [9]. In addition, in assay [4], the pest or weed control at 500 ppm is 80 to 100%.

Consider `CCOc1c(F)cc(C(O)(COCc2cccc(Oc3ccccc3)c2)C(F)(F)F)cc1F` (racemic) [Compound 176, (RS)-1,1,1-trifluoro-2-(3,5-difluoro-4-ethoxyphenyl)-3-(3-phenoxybenzyloxy)propan-2-ol], for which the mortality at 500 ppm was less than 50% in assay [1]; less than 50% in assay [2]; less than 50% in assay [3]; less than 50% in assay [5]; less than 50% in [6]; 50 to 79% in assay [7]. Besides, the mortality at 500 ppm fell in the range of 70 to 100% in assay [8] and 80 to 100% in assay [9]. Further, the pest or weed control at 500 ppm in assay [4] was 80 to 100%.

For the molecule `Fc1ccc(COCC(F)(c2ccc(Br)cc2)C(F)(F)F)cc1Oc1ccccc1` (stereo not drawn) [Compound 83, 1,1,1,2-Tetrafluoro-2-(4-bromophenyl)-3-(3-phenoxy-4-fluorobenzyloxy)propane], the mortality at 500 ppm in assay [1] was less than 50%; in assay [2], 80 to 100%; in [3] it was 80 to 100%; in assay [5] it was 80 to 100%; in assay [6], 80 to 100%; in [7], 80 to 100%. Also, the mortality at 500 ppm in [8] lay in the range of 70 to 100%; in assay [9], 80 to 100%. Also, in assay [4], the pest or weed control at 500 ppm lay within 80 to 100%.

As for `CCOc1ccc(C(COCc2cccc(Oc3ccccc3)c2)C(F)(F)F)cc1F` (stereo not drawn) [Compound 14, 1,1,1-Trifluoro-2-(3-fluoro-4-ethoxyphenyl)-3-(3-phenoxybenzyloxy)propane], the mortality at 100 ppm in assay [1] was less than 50%; in [2], 80 to 100%; in [3], 80 to 100%; in assay [5], 80 to 100%; in assay [6], 80 to 100%; in assay [7], 80 to 100%. Also, the mortality at 100 ppm in assay [8] lay in the range of 70 to 100%; in assay [9], 80 to 100%. In addition, the pest or weed control at 100 ppm in [4] lay in the range of 80 to 100%.

With `FC(F)(F)Oc1ccc(C(COCc2cccc(Oc3ccccc3)n2)C(F)(F)F)cc1` (stereo not drawn) [Compound 28, 1,1,1-Trifluoro-2-(4-trifluoromethoxyphenyl)-3-(6-phenoxy-2-pyridylmethyloxy)propane], the mortality at 100 ppm in [1] was less than 50%; in assay [2] it was 80 to 100%; in assay [3] it was 80 to 100%; in assay [5], 80 to 100%; in assay [6], 80 to 100%; in assay [7], 80 to 100%. The mortality at 100 ppm in [8] lay within 70 to 100%; in [9], 80 to 100%. Moreover, the pest or weed control at 100 ppm in assay [4] fell in the range of 80 to 100%.

Regarding `FC(F)(F)C(COCc1cccc(Oc2ccccc2)c1)c1ccc2c(c1)OCO2` (stereo not drawn) [Compound 31, 1,1,1-Trifluoro-2-(3,4-methylenedioxyphenyl)-3-(3-phenoxybenzyloxy)propane], the mortality at 500 ppm in assay [1] is less than 50%; in [2], 80 to 100%; in assay [3], 80 to 100%; in assay [5] it was 80 to 100%; in [6] it was 80 to 100%; in [7], 80 to 100%. Besides, the mortality at 500 ppm in assay [8] is 70 to 100%; in [9] it was 80 to 100%. The pest or weed control at 500 ppm in [4] lay within 80 to 100%.

With `CCOc1c(F)cc(C(COCc2cccc(Oc3ccc(Cl)cc3)c2)C(F)(F)F)cc1F` (racemic) [Compound 165, (RS)-1,1,1-Trifluoro-2-(3,5-difluoro-4-ethoxyphenyl)-3 (3-(4-chlorophenoxy)benzyloxy)propane], the mortality at 500 ppm in assay [1], in assay [2], in assay [3], in assay [5], in assay [6] and in assay [7] was 80 to 100% each time. The mortality at 500 ppm in [8] fell in the range of 70 to 100%; in [9], 80 to 100%. The pest or weed control at 500 ppm in [4] is 80 to 100%.

`CCOc1ccc([C@H](CO[C@H](C)c2cccc(Oc3ccccc3)c2)C(F)(F)F)cc1` (racemic) [Compound 256, (2RS)-1,1,1-trifluoro-2-(4-ethoxyphenyl)-3-[(1RS)-1-(3-phenoxyphenyl)ethoxy]propane]: the mortality at 500 ppm in assay [1] is less than 50%; in assay [2] it was 80 to 100%; in [3], 80 to 100%; in [5] it was 80 to 100%; in [6], less than 50%; in assay [7], 80 to 100%. In addition, the mortality at 500 ppm in [8] and in assay [9] was less than 50% each time. Moreover, in [4], the pest or weed control at 500 ppm lay within 50 to 79%.
